Patent US4656166A, “Antibiotic compounds derived from cephalosporins, process for their production and pharmaceutical compositions” (Sanofi, priority 1983, dated 1987)
Converted amounts (≈) assume the structure as drawn.

Tests used:
Format in all cases: cell-based
Klebsiella RO 30 = experiment: MIC, in vitro dilution method, Klebsiella RO 30 (Table III); conditions: RO30; Klebsiella RO 30; dilution method; read-out: MIC
Description: (§1) The products of the invention have been studied as regards their pharmacological properties and, more especially, bacteriostatic action. This has been determined in vitro by the dilution method, and the study was on Gram negative strains.
(§2) Results, expressed in minimum inhibiting concentrations (MIC-- μg/ml), are collected in the following table (Table III).

Pseudomonas RL 112 = experiment: MIC, in vitro dilution method, Pseudomonas RL 112 (Table III); conditions: RL112
Description: as §1, §2

Escherichia coli SOL 90 = experiment: MIC, in vitro dilution method, Escherichia coli SOL 90 (Table III); conditions: SOL90; Escherichia coli SOL 90; dilution method; read-out: MIC
Description: as §1, §2

Citrobacter RL 49 = experiment: MIC, in vitro dilution method, Citrobacter RL 49 (Table III); conditions: RL49; Citrobacter RL 49; dilution method; read-out: MIC
Description: as §1, §2

Enterobacter RO 154 = experiment: MIC, in vitro dilution method, Enterobacter RO 154 (Table III); conditions: RO154; Enterobacter RO 154; dilution method; read-out: MIC
Description: as §1, §2

[1] = system: Proteus vulgaris RL 99 bis; experiment: MIC, in vitro dilution method, Proteus vulgaris RL 99 bis (Table III); conditions: RL99BIS; Proteus vulgaris RL 99 bis; dilution method; read-out: MIC
Description: as §1, §2

Serratia RL 72 = experiment: MIC, in vitro dilution method, Serratia RL 72 (Table III); conditions: RL72
Description: as §1, §2

Structure (SMILES)	MIC (Klebsiella RO 30) [µg/mL]	MIC (Pseudomonas RL 112) [µg/mL]	MIC (Escherichia coli SOL 90) [µg/mL]	MIC (Citrobacter RL 49) [µg/mL]	MIC (Enterobacter RO 154) [µg/mL]	MIC [1] [µg/mL]	MIC (Serratia RL 72) [µg/mL]
CNCCCCC(=O)OCC1=C(C(=O)O)N2C(=O)C(NC(=O)/C(=N\OC(C)(C)C(=O)O)c3csc(N)n3)C2[S+]([O-])C1 (stereo not shown) [42 029]	0.25 (≈ 0.407 µM)	8 (≈ 13 µM)	0.25 (≈ 0.407 µM)	0.25 (≈ 0.407 µM)	2 (≈ 3.25 µM)	≤ 0.12	0.5 (≈ 0.813 µM)
CC(CCN)C(=O)OCC1=C(C(=O)O)N2C(=O)C(NC(=O)C(=NOC3(C(=O)O)CCC3)c3csc(N)n3)C2[S+]([O-])C1 (stereo not shown) [42 209]	0.25 (≈ 0.408 µM)	4 (≈ 6.53 µM)	0.25 (≈ 0.408 µM)	≤ 0.12	≤ 0.12	≤ 0.12	0.5 (≈ 0.816 µM)
CNCc1ccc(C(=O)SCC2=C(C(=O)O)N3C(=O)C(NC(=O)C(=NOC4(C(=O)O)CCC4)c4csc(N)n4)C3[S+]([O-])C2)cc1 (stereo not shown) [compound 42534]	0.25 (≈ 0.369 µM)	8 (≈ 11.8 µM)	0.5 (≈ 0.739 µM)	0.25 (≈ 0.369 µM)	0.5 (≈ 0.739 µM)	≤ 0.125	1 (≈ 1.48 µM)
C[C@H](N)C(=O)OCC1=C(C(=O)O)N2C(=O)C(NC(=O)/C(=N\OC(C)(C)C(=O)O)c3csc(N)n3)C2[S+]([O-])C1 (stereo partly shown) [41 733]	1 (≈ 1.75 µM)	8 (≈ 14 µM)	2 (≈ 3.49 µM)	2 (≈ 3.49 µM)	1 (≈ 1.75 µM)	0.5 (≈ 0.873 µM)	8 (≈ 14 µM)
Nc1nc(/C(=N/OC2(C(=O)O)CCC2)C(=O)NC2C(=O)N3C(C(=O)O)=C(COC(=O)CC4CCCNC4)C[S+]([O-])C23)cs1 (stereo not shown) [42 472]	≤ 0.125	4 (≈ 6.26 µM)	0.25 (≈ 0.391 µM)	≤ 0.125	≤ 0.125	≤ 0.125	0.25 (≈ 0.391 µM)
Cc1ccc(C(=O)OCC2=C(C(=O)O)N3C(=O)C(NC(=O)/C(=N\OC(C)(C)C(=O)O)c4csc(N)n4)C3[S+]([O-])C2)cc1CN (stereo not shown) [42 379]	≤ 0.125	8 (≈ 12.3 µM)	0.25 (≈ 0.385 µM)	≤ 0.125	≤ 0.125	≤ 0.125	0.5 (≈ 0.771 µM)
Cc1cc(C(=O)OCC2=C(C(=O)O)N3C(=O)C(NC(=O)/C(=N\OC(C)(C)C(=O)O)c4csc(N)n4)C3[S+]([O-])C2)ccc1CN (stereo not shown) [42 380]	≤ 0.125	4 (≈ 6.17 µM)	≤ 0.125	≤ 0.125	≤ 0.125	≤ 0.125	1 (≈ 1.54 µM)
CC(C)(O/N=C(\C(=O)NC1C(=O)N2C(C(=O)O)=C(COC(=O)[C@@H](N)CCCCN)C[S+]([O-])C12)c1csc(N)n1)C(=O)O (stereo partly shown) [41 888]	1 (≈ 1.59 µM)	8 (≈ 12.7 µM)	2 (≈ 3.18 µM)	2 (≈ 3.18 µM)	8 (≈ 12.7 µM)	1 (≈ 1.59 µM)	8 (≈ 12.7 µM)
CC(C)NCc1ccc(C(=O)OCC2=C(C(=O)O)N3C(=O)C(NC(=O)/C(=N\OC(C)(C)C(=O)O)c4csc(N)n4)C3[S+]([O-])C2)cc1 (stereo not shown) [42 397]	≤ 0.125	8 (≈ 11.8 µM)	≤ 0.125	≤ 0.125	≤ 0.125	≤ 0.125	1 (≈ 1.48 µM)
CC(O/N=C(\C(=O)NC1C(=O)N2C(C(=O)O)=C(COC(=O)C3CCNCC3)C[S+]([O-])C12)c1csc(N)n1)C(=O)O (stereo not shown) [42 215]	≤ 0.12	8 (≈ 13.4 µM)	≤ 0.12	≤ 0.12	≤ 0.12	≤ 0.12	0.25 (≈ 0.418 µM)
C[C@@H](N)C(=O)OCC1=C(C(=O)O)N2C(=O)C(NC(=O)/C(=N\OC(C)(C)C(=O)O)c3csc(N)n3)C2[S+]([O-])C1 (stereo partly shown) [41 891]	0.5 (≈ 0.873 µM)	8 (≈ 14 µM)	0.5 (≈ 0.873 µM)	0.5 (≈ 0.873 µM)	8 (≈ 14 µM)	0.5 (≈ 0.873 µM)	4 (≈ 6.99 µM)
CSCC[C@H](N)C(=O)OCC1=C(C(=O)O)N2C(=O)C(NC(=O)/C(=N\OC(C)(C)C(=O)O)c3csc(N)n3)C2[S+]([O-])C1 (stereo partly shown) [41 887]	0.5 (≈ 0.79 µM)	8 (≈ 12.6 µM)	2 (≈ 3.16 µM)	4 (≈ 6.32 µM)	8 (≈ 12.6 µM)	0.25 (≈ 0.395 µM)	4 (≈ 6.32 µM)
CC(C)(ON=C(C(=O)NC1C(=O)N2C(C(=O)O)=C(COC(=O)CC(N)c3ccccc3)C[S+]([O-])C12)c1csc(N)n1)C(=O)O (stereo not shown) [42 026]	0.25 (≈ 0.385 µM)	8 (≈ 12.3 µM)	0.5 (≈ 0.771 µM)	0.25 (≈ 0.385 µM)	4 (≈ 6.17 µM)	≤ 0.12	1 (≈ 1.54 µM)
CC(C)(O/N=C(\C(=O)NC1C(=O)N2C(C(=O)O)=C(COC(=O)C3(N)CCCCC3)C[S+]([O-])C12)c1csc(N)n1)C(=O)O (stereo not shown) [41 976]	0.5 (≈ 0.798 µM)	8 (≈ 12.8 µM)	1 (≈ 1.6 µM)	0.5 (≈ 0.798 µM)	8 (≈ 12.8 µM)	0.25 (≈ 0.399 µM)	8 (≈ 12.8 µM)
CCNCc1cccc(C(=O)OCC2=C(C(=O)O)N3C(=O)C(NC(=O)/C(=N\OC(C)(C)C(=O)O)c4csc(N)n4)C3[S+]([O-])C2)c1 (stereo not shown) [42 538]	0.25 (≈ 0.377 µM)	8 (≈ 12.1 µM)	0.5 (≈ 0.754 µM)	0.25 (≈ 0.377 µM)	0.25 (≈ 0.377 µM)	≤ 0.125	0.5 (≈ 0.754 µM)
Cc1cc(CN)ccc1C(=O)SCC1=C(C(=O)O)N2C(=O)C(NC(=O)C(=NOC3(C(=O)O)CCC3)c3csc(N)n3)C2[S+]([O-])C1 (stereo not shown) [compound 42851]	0.25 (≈ 0.369 µM)	8 (≈ 11.8 µM)	0.5 (≈ 0.739 µM)	–	1 (≈ 1.48 µM)	–	–
